Assay: Solubility in organic solvents
Type: physicochemical
Settings: in solvents such as THF, toluene, cyclohexane and dichloromethane

Compound: CCCCCCCCc1ccc(CCCCCCCC)c2c1-c1nc-2nc2[nH]c(nc3nc(nc4[nH]c(n1)c1ccncc41)-c1c(CCCCCCCC)ccc(CCCCCCCC)c1-3)c1c(CCCCCCCC)ccc(CCCCCCCC)c21 [1a, 1,4,8,11,15,18-(hexaoctyl)tribenzo-3,4-pyridinoporphyrazine]
- solubility: good solubility

From patent US6384027B1, “Phthalocyanine analogs” (QinetiQ Limited, priority 1997, dated 2002)
